Read-outs that look alike come from different tables or passages of the source. Residues, ends and D or L forms follow the SMILES beside them.
Columns and labels:
h-mT1R2-471/mT1R3 = h-mT1R2-471/mT1R3 (UniProt Q8TE23+Q925D8, A537S/A564V/A568V/A570T/A649T/A658V/A782V/D480N/E530V/E534N/E542M/E548N/F525Y/F665L/G696N/G701T/H484Y/H528R/I481V/I486P/I490V/I510L/I518V/I595M/I643V/I645L/I692L/I695G/K476T/K504M/K626T/K714N/L471T/L521P/L571I/L578I/L610P/L631F/L636F/L639V/L688V/L702I/L734M/L800F/M492I/M616G/M682V/M690V/M748V/N477Y/N540G/N541S/N721H/P638T/P824S/Q472E/Q474R/Q479S/Q536L/Q546K/Q555R/Q676H/R473T/R498S/R667S/S501P/S547N/S550A/S628F/S663R/S670G/S681F/S703N/S727G/S784D/S804G/T529S/T549I/T609V/T629S/T642S/T705I/T706G/T716I/V508I/V512P/V557A/V585L/V613L/V617M/V673M/V687A/V691A/V694A/V718L/V741L/V774I/V791M/Y533F/Y615F/Y671F/Y769S/Y783H); conditions: Table 4; genes h-mT471/mT3 (h-mT1R2-471, mT1R3); HEK293E cells
h-mT1R2-471/mT1R3, sequence (Q8TE23 with tags, fused parts or gaps with the stated changes limits assumed): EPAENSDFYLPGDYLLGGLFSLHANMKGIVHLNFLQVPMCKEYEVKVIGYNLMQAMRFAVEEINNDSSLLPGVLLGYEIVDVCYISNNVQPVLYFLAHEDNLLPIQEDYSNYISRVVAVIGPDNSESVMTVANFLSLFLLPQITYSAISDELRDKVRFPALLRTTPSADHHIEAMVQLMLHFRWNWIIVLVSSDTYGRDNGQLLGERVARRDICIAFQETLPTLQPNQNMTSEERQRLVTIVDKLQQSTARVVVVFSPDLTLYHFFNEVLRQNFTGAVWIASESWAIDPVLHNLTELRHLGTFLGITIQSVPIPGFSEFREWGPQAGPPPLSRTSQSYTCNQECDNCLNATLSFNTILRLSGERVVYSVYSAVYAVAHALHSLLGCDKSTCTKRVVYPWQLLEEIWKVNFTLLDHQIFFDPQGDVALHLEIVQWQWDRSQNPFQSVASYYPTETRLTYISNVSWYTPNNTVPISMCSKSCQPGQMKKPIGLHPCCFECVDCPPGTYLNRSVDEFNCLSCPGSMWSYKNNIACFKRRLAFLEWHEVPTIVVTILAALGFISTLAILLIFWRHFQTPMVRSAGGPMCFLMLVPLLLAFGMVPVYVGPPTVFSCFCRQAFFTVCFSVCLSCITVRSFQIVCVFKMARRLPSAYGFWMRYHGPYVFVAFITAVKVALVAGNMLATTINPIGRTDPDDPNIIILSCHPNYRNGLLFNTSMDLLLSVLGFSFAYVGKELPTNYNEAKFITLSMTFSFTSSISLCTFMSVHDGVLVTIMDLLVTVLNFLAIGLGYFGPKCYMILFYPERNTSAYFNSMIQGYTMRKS
h-mT1R2-471/mT1R3, sequence (Q925D8 21-858, stated change not applied): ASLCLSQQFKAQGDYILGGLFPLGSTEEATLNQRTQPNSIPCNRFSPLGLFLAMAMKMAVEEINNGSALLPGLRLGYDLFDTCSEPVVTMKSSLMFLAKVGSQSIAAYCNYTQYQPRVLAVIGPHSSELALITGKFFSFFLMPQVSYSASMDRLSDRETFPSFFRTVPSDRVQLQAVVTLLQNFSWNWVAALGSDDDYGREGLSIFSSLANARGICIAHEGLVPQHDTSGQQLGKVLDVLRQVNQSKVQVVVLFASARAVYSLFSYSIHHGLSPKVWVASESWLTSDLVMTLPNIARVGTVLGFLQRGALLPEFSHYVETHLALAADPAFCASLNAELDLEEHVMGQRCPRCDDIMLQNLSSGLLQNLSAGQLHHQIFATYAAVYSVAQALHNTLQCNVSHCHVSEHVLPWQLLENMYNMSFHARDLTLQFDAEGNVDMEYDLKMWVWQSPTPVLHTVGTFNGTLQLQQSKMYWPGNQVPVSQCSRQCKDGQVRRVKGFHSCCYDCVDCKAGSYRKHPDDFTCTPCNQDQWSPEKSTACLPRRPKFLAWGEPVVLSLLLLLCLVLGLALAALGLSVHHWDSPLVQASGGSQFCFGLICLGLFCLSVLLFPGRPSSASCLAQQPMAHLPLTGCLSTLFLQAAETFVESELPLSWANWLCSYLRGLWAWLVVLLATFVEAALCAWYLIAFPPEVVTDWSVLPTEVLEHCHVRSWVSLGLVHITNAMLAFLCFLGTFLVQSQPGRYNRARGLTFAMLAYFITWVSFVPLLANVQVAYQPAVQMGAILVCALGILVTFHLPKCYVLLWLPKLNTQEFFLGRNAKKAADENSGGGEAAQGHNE

h-mT1R2-481/mT1R3 = h-mT1R2-481/mT1R3 (UniProt Q8TE23+Q925D8, A537S/A564V/A568V/A570T/A649T/A658V/A782V/E530V/E534N/E542M/E548N/F525Y/F665L/G696N/G701T/H484Y/H528R/I481V/I486P/I490V/I510L/I518V/I595M/I643V/I645L/I692L/I695G/K504M/K626T/K714N/L521P/L571I/L578I/L610P/L631F/L636F/L639V/L688V/L702I/L734M/L800F/M492I/M616G/M682V/M690V/M748V/N540G/N541S/N721H/P638T/P824S/Q536L/Q546K/Q555R/Q676H/R498S/R667S/S501P/S547N/S550A/S628F/S663R/S670G/S681F/S703N/S727G/S784D/S804G/T529S/T549I/T609V/T629S/T642S/T705I/T706G/T716I/V508I/V512P/V557A/V585L/V613L/V617M/V673M/V687A/V691A/V694A/V718L/V741L/V774I/V791M/Y533F/Y615F/Y671F/Y769S/Y783H); conditions: genes h-mT481/mT3 (h-mT1R2-481, mT1R3), HEK293E cells
h-mT1R2-481/mT1R3, sequence (Q8TE23 with tags, fused parts or gaps with the stated changes limits assumed): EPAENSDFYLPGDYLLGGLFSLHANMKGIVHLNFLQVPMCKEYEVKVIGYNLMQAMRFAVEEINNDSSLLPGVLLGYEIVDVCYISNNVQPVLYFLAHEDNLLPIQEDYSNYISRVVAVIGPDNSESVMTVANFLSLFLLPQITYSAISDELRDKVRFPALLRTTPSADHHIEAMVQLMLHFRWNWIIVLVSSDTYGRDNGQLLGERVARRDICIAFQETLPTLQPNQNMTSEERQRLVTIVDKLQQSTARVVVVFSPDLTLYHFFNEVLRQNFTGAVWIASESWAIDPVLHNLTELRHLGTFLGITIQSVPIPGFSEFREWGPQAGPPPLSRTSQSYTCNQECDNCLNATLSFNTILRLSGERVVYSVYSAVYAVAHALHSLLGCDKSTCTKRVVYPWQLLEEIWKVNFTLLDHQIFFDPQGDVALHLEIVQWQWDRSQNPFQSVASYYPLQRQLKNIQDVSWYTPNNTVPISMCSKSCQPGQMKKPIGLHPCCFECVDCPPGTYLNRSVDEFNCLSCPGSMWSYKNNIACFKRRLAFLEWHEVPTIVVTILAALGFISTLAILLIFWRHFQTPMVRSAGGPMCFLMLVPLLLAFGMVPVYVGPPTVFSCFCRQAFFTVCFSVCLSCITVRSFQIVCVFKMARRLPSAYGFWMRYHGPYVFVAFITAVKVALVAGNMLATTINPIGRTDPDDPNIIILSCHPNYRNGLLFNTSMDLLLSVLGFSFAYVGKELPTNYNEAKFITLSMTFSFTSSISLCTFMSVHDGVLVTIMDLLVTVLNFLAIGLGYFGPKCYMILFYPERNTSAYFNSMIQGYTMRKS
h-mT1R2-481/mT1R3, sequence (Q925D8 21-858, stated change not applied): as the sequence (Q925D8 21-858, stated change not applied) above

Structure (SMILES)	S/N (h-mT1R2-471/mT1R3)	S/N (h-mT1R2-481/mT1R3; Table 3)	S/N (h-mT1R2-481/mT1R3; Table 4)
COC(=O)[C@H](Cc1ccccc1)NC(=O)[C@H](CC(=O)O)NCCC(C)(C)C [Neotame, neotame]	4.4	5.4	5.4
COC(=O)[C@H](Cc1ccccc1)NC(=O)[C@H](CC(=O)O)NCCCc1ccc(OC)c(O)c1 [Advantame, advantame]	5.5	6.6	7.1
OC[C@H]1O[C@@](CO)(O[C@H]2O[C@H](CO)[C@@H](O)[C@H](O)[C@H]2O)[C@@H](O)[C@@H]1O [Sucrose, sucrose]	3.5	2.8	3.9
COC(=O)[C@H](Cc1ccccc1)NC(=O)[C@@H](N)CC(=O)O [Aspartame, aspartame] (HELM PEPTIDE1{D.F.[CO[*:1]]}$$$$V2.0)	4.6	4.3	5.8
O=C1NS(=O)(=O)c2ccccc21.[Na] [Saccharin Na, sodium saccharin]	3.6	3.9	4.4
C[C@H](NC(=Nc1ccc(C#N)cc1)NCC(=O)O)c1ccccc1 [SC-45647, [3-[(S)-1-phenylethyl]-2-(4-cyanophenyl)guanidino]acetic acid]	4.2	5.1	5.2
OC[C@H]1O[C@H](O[C@]2(CCl)O[C@H](CCl)[C@@H](O)[C@@H]2O)[C@H](O)[C@@H](O)[C@H]1Cl [Sucralose, sucralose]	4.6	5.0	5.7
CC1=CC(=O)NS(=O)(=O)O1 [Acesulfame K, acesulfame potassium]	3.1	3.0	3.7
